Reference: PMC12111564, “Extended Family of Thiophosphoryl-Appended Pd(II) Pincer Complexes with a Deprotonated Amide Core: Synthesis and Biological Evaluation” (International Journal of Molecular Sciences, 2025)

Columns and labels:
[1] = test system: multiple plasmacytoma (AMO1); assay: MTT cytotoxicity assay, AMO1; format: cell-based, human; conditions: 48 h exposure, read-out: IC50 ± SD, AMO1
Protocol: (§1) The cytotoxic activity of the complexes obtained was screened against several human solid and hematopoietic cancer cell lines using the conventional MTT assay. To evaluate their selectivity for cancerous over non-cancerous cells, analogous tests were performed with pseudonormal human embryonic kidney (HEK293) and breast epithelial (HBL100) cell lines.
(§2) The cytotoxicity of the compounds obtained was investigated on human colorectal carcinoma (HCT116), breast cancer (MCF7), prostate adenocarcinoma (PC3), glioblastoma (U251), ovarian adenocarcinoma (Scov3), chronic myelogenous leukemia (K562 and K562/iS9), multiple plasmacytoma (AMO1), and acute lymphoblastic leukemia (H9) cell lines, as well as human embryonic kidney (HEK293) and mammary epithelial (HBL100 and HBL100/Dox) cells used as non-cancerous cell lineages. All the cell lines were obtained from American Type Culture Collection (ATCC). The tested compounds were initially dissolved in DMSO. Cisplatin was obtained from a commercial source (as an infusion concentrate in natural saline solution). The experiments were performed using the conventional MTT assay (ICN Biomedicals, Eschwege, Germany) according to the previously published procedure.

[2] = test system: prostate adenocarcinoma (PC3); assay: MTT cytotoxicity assay, PC3; format: cell-based, human; conditions: 48 h exposure, read-out: IC50 ± SD, PC3
Protocol: as §1, §2

[3] = test system: doxorubicin-resistant mammary epithelial cells HBL100/Dox; assay: MTT cytotoxicity assay, HBL100/Dox; format: cell-based, human; conditions: 48 h exposure, doxorubicin-resistant clone, read-out: IC50 ± SD, HBL100/Dox
Protocol: as §1, §2

[4] = test system: human embryonic kidney (HEK293); assay: MTT cytotoxicity assay, HEK293; format: cell-based; conditions: 48 h exposure, non-cancerous cells, read-out: IC50 ± SD, HEK293
Protocol: as §1, §2

[5] = test system: doxorubicin-resistant subline of chronic myelogenous leukemia cells (K562/iS9); assay: MTT cytotoxicity assay, K562/iS9; format: cell-based, human; conditions: 48 h exposure, read-out: IC50 ± SD, K562/iS9
Protocol: as §1, §2

[6] = test system: human colorectal carcinoma (HCT116); assay: MTT cytotoxicity assay, HCT116; format: cell-based; conditions: 48 h exposure, read-out: IC50 ± SD, HCT116
Protocol: as §1, §2

breast cancer (MCF7) = assay: MTT cytotoxicity assay, MCF7; format: cell-based, human; conditions: 48 h exposure, read-out: IC50 ± SD, MCF7
Protocol: as §1, §2

[7] = test system: chronic myelogenous leukemia (K562); assay: MTT cytotoxicity assay, K562; format: cell-based, human; conditions: 48 h exposure, read-out: IC50 ± SD, K562
Protocol: as §1, §2

[8] = test system: acute lymphoblastic leukemia (H9); assay: MTT cytotoxicity assay, H9; format: cell-based, human; conditions: 48 h exposure, read-out: IC50 ± SD, H9
Protocol: as §1
as §2, with “Cisplatin was obtained from a commercial source (as an infusion concentrate in natural saline solution).” left out

[9] = test system: mammary epithelial cells HBL100; assay: MTT cytotoxicity assay, HBL100; format: cell-based, human; conditions: 48 h exposure, non-cancerous cells, read-out: IC50 ± SD, HBL100
Protocol: as §1, §2

O=C1c2sc3ccccc3[n+]2[Pd-2]2([Cl])[S+]=P(c3ccccc3)(c3ccccc3)C(c3ccccc3)[N]12 (racemic) [Compound 12, [κ^3-S,N,N-(L)Pd(II)Cl] complex]
IC50 [1]: 3.7 ± 0.7 µM | IC50 [2]: 10 ± 2.8 µM | IC50 [3]: 6.7 ± 1.5 µM | IC50 [4]: 6.5 ± 2.2 µM | IC50 [5]: 2 ± 0.4 µM | IC50 [6]: 11.3 ± 3.1 µM | IC50 (breast cancer (MCF7)): 19 ± 4.2 µM | IC50 [7]: 4.2 ± 0.8 µM | IC50 [8]: 2.2 ± 0.7 µM | IC50 [9]: 12 ± 3.5 µM

C[S+]1CC(=O)[N]2CP(c3ccccc3)(c3ccccc3)=[S+][Pd-2]21[Cl] (stereo not drawn) [Compound 13b, [κ^3-S,N,S-(L)Pd(II)Cl] complex]
IC50 [2]: 30 ± 2 µM | IC50 [3]: > 60 µM | IC50 [4]: 34 ± 2 µM | IC50 [6]: 23 ± 7 µM | IC50 (breast cancer (MCF7)): 40 ± 5 µM | IC50 [9]: 52 ± 4 µM

N.N.[Cl][Pt][Cl] [cisplatin, reference compound]
IC50 [1]: 3.2 ± 0.6 µM | IC50 [2]: 16 ± 3 µM | IC50 [3]: 23.6 ± 3.6 µM | IC50 [4]: 12.5 ± 1.5 µM | IC50 [5]: 16 ± 2 µM | IC50 [6]: 18 ± 2 µM | IC50 (breast cancer (MCF7)): 25 ± 4 µM | IC50 [7]: 15.5 ± 0.5 µM | IC50 [9]: 14.6 ± 3.6 µM

O=C1c2ccc3ccccc3[n+]2[Pd-2]2([Cl])[S+]=P(c3ccccc3)(c3ccccc3)C(c3ccccc3)[N]12 (racemic) [Compound 10a, [κ^3-S,N,N-(L)Pd(II)Cl] complex]
IC50 [2]: 33 ± 3 µM | IC50 [3]: > 60 µM | IC50 [4]: 15 ± 4 µM | IC50 [6]: 22 ± 2 µM | IC50 (breast cancer (MCF7)): > 65 µM | IC50 [9]: > 60 µM

C[S+]1CC(=O)[N]2C(c3ccccc3)P(c3ccccc3)(c3ccccc3)=[S+][Pd-2]21[Cl] (racemic) [Compound 13a, [κ^3-S,N,S-(L)Pd(II)Cl] complex]
IC50 [1]: 4.2 ± 0.3 µM | IC50 [2]: 30 ± 2.5 µM | IC50 [3]: 54 ± 5.6 µM | IC50 [4]: 22 ± 6 µM | IC50 [5]: 15.2 ± 1.8 µM | IC50 [6]: 17 ± 2 µM | IC50 (breast cancer (MCF7)): 31 ± 6 µM | IC50 [7]: 14.2 ± 2.2 µM | IC50 [8]: 4 ± 0.6 µM | IC50 [9]: 32 ± 6 µM

O=C1c2cccc3ccc[n+](c23)[Pd-2]2([Cl])[S+]=P(c3ccccc3)(c3ccccc3)C[N]12 (stereo not drawn) [Compound 11, [κ^3-S,N,N-(L)Pd(II)Cl] complex]
IC50 [2]: 31 ± 1 µM | IC50 [3]: 41 ± 1 µM | IC50 [4]: 41 ± 4 µM | IC50 [6]: 18 ± 2 µM | IC50 (breast cancer (MCF7)): 46 ± 4 µM | IC50 [9]: 29 ± 5 µM

C[S+]1c2ccccc2C(=O)[N]2C(c3ccccc3)P(c3ccccc3)(c3ccccc3)=[S+][Pd-2]21[Cl] (racemic) [Compound 14, [κ^3-S,N,S-(L)Pd(II)Cl] complex]
IC50 [1]: 1.2 ± 0.3 µM | IC50 [2]: 4.2 ± 1.4 µM | IC50 [3]: 2.1 ± 0.3 µM | IC50 [4]: 4.9 ± 1.5 µM | IC50 [5]: 1.7 ± 0.2 µM | IC50 [6]: 4.5 ± 1.1 µM | IC50 (breast cancer (MCF7)): 9.2 ± 0.9 µM | IC50 [7]: 2.1 ± 0.2 µM | IC50 [8]: 2.3 ± 0.5 µM | IC50 [9]: 8.4 ± 0.5 µM
